Assay results taken from ChEMBL document CHEMBL1152642, “Semisynthetic latrunculin B analogs: studies of actin docking support a proposed mechanism for latrunculin bioactivity” (Bioorg Med Chem, 2009).
Calls of active or inactive are those of the source. The calls are words filed in the database; no cut-off is given here.

Experiments:
Assay type in all cases: functional, organism-based
[1] = tested on: Saccharomyces cerevisiae; assay: Antimicrobial activity against Saccharomyces cerevisiae NRRL Y2034 by twofold dilution method
[2] = tested on: Candida albicans; assay: Antimicrobial activity against Candida albicans by twofold dilution method
[3] = tested on: Aspergillus flavus; assay: Antimicrobial activity against Aspergillus flavus NRRL 501 by twofold dilution method

Row | SMILES | Activity [1] | Activity [2] | Activity [3]
1 | CCCCCCCCCCN1C(=O)SC[C@H]1[C@@]1(O)C[C@H]2C[C@@H](CC[C@H](C)/C=C\CC/C(C)=C\C(=O)O2)O1 | inactive | inactive | inactive
2 | CO[C@]1([C@@H]2CSC(=O)N2C)C[C@H]2C[C@@H](CC[C@H](C)/C=C\CC/C(C)=C\C(=O)O2)O1 | inactive | inactive | inactive
3 | C/C1=C/C(=O)O[C@@H]2C[C@@H](CC[C@H](C)/C=C\CC1)O[C@@](O)([C@@H]1CSC(=O)N1)C2 | Active | Active | Active
4 | CCCCCCCCN1C(=O)SC[C@H]1[C@@]1(OC)C[C@H]2C[C@@H](CC[C@H](C)/C=C\CC/C(C)=C\C(=O)O2)O1 | inactive | inactive | inactive
5 | CCCCCN1C(=O)SC[C@H]1[C@@]1(OC)C[C@H]2C[C@@H](CC[C@H](C)/C=C\CC/C(C)=C\C(=O)O2)O1 | inactive | inactive | inactive
6 | C/C1=C/C(=O)O[C@@H]2C[C@@H](CC[C@H](C)/C=C\CC1)O[C@@](O)([C@H]1CSC(=O)N1)C2 | Active | Active | Active
7 | CCCCCCCCCCN1C(=O)SC[C@H]1[C@@]1(OC)C[C@H]2C[C@@H](CC[C@H](C)/C=C\CC/C(C)=C\C(=O)O2)O1 | inactive | inactive | inactive
8 | CCCCCCN1C(=O)SC[C@H]1[C@@]1(OC)C[C@H]2C[C@@H](CC[C@H](C)/C=C\CC/C(C)=C\C(=O)O2)O1 | inactive | inactive | inactive
9 | C/C1=C/C(=O)O[C@@H]2C[C@@H](CC[C@H](C)/C=C\C=C\CC1)O[C@@](O)([C@@H]1CSC(=O)N1)C2 | Active | Active | Active
10 | CO[C@]1([C@@H]2CSC(=O)N2)C[C@H]2C[C@@H](CC[C@H](C)/C=C\CC/C(C)=C\C(=O)O2)O1 | inactive | inactive | inactive
11 | C/C1=C/C(=O)O[C@@H]2CC(CC[C@H](C)/C=C\C=C\CC1)O[C@@](O)([C@H]1CSC(=O)N1)C2 | Active | Active | Active
12 | CCCCCCCCCN1C(=O)SC[C@H]1[C@@]1(OC)C[C@H]2C[C@@H](CC[C@H](C)/C=C\CC/C(C)=C\C(=O)O2)O1 | inactive | inactive | inactive
